The values that follow come from publication PMC6268492, “Synthesis and Antiangiogenic Activity of Novel Gambogic Acid Derivatives” (Molecules, 2012).

The subject of data set [1] is HUVECs. Description: Matrigel tube formation assay. The following applies: Homo sapiens, HUVEC, 0.5 μM, 6 h, vs control, read-out: inhibitory rates of tube formation. It counts as cell-based, Human. Here is the method: In the later stages of angiogenesis, tube formation of ECs is also an important process. Thus, a Matrigel tube formation assay was applied to assess the ability of HUVECs to form ECs vascular structures which is believed to be significant in new vessel formation.
Figure 4 Effects on the HUVECs tube formation. (I) HUVECs (1 × 10^4 cells) suspended in DMEM containing each compound (0.5 or 1 or 2 μM) were added to the Matrigel. Control was treated with DMEM alone. After incubation for 6 h at 37 °C, capillary networks were photographed and quantified (Olympus CKX41, magnification: 100×); (II) Rates of the HUVECs tube formation. The number of intact tubes was counted in five randomly chosen regions and expressed as the percentage of the control. The results were expressed as mean ±SD. ** p < 0.01; *** p < 0.005 compared with control.
Matrigel was dissolved at 4 °C overnight. Each well of prechilled 96-well plates was coated with 50 μL of Matrigel, incubated and solidified at 37 °C for 45 min. After removing the unsolidified fluid, HUVECs at the density of 1 × 10^4 were cultured in DMEM containing the indicated concentrations of compounds for 6 h. Controls were treated with the DMEM alone. Images were digitally captured and quantitatively analyzed (Olympus). The numbers and line lengths of the circular tubules formed by the cells were calculated manually. The values were observed from five randomly selected fields.

A further data set relates to LO2. Description: MTT assay, cytotoxicity. It is filed as cell-based. The conditions noted are these: Homo sapiens, L02, 24 h, read-out: IC50, inhibition of cell proliferation. A digest of the protocol: (§1)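 5 × 10^3 cells/well; compound 24 h, 37 °C, 5% CO2; MTT 3 h; formazan in DMSO; A570. Media: DMEM + 10% FBS (HepG2, HeLa, LO2), RPMI 1640 + 10% FBS (K562). IC50 = 50% growth inhibition vs untreated.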
Background: Tetrazolium dyes change colour on reduction, which living cells bring about.

Data set [2] concerns zebrafish embryos. Briefly: Zebrafish toxicity: heart rates. It is filed as in vivo. The conditions noted are these: for Heart rates of zebrafish: control 117 beats/min. Here is the method:
(§2) To investigate the toxicity of these four compounds, the heart rates and the mortality rates of zebrafish embryos were recorded (Table 2 and Table 3). The heart rate of zebrafish in the control group was 117 beats/min.
(§3) Using transgenic fli-1: enhanced GFP zebrafish embryos, we investigated the effects of all compounds on angiogenesis. Zebrafish embryos were generated by natural pairwise mating and raised at 28.5 °C in embryo water (0.2 g/L of Instant Ocean Salt in distilled water). At about 6 h post fertilization (hpf), the embryos were sorted in the 6-well plate (six embryos/well), removing dead and unhealthy embryos. Then the embryos were treated with the indicated concentrations of compounds which were added into embryo water. After incubation for 24 or 48 h, the embryos were anesthetized using 0.05% 2-phenoxyethanol in embryo water, quantified and photographed.

The test system of data set [3] is HUVECs. Description: Wound-healing migration assay. It counts as cell-based, Human. The conditions noted are these: 1 μM, 24 h, control = 100%. From the text:
The migration of ECs is an important step of angiogenesis. The continuity of vascular ECs is the most important factor in preserving vessel wall function. Migration of ECs is essential to the recovery of this continuity after vascular ECs injury. […] As illustrated in Figure 3(I), the HUVECs migrated into the wound area actively (between the two white dash lines) under the compound-free condition (control).
Figure 3 Effects on the HUVECs migration. (I) HUVECs suspended in serum-free Dulbecco’s Modified Eagle Medium (DMEM) containing compounds (0.25 or 0.5 or 1 μM) for 24 h were photographed under a phase contrast microscopy (Olympus CKX41, magnification: 50×). Control was treated with serum-free DMEM which was consided as resulting in 100%; (II) Migration rates of compounds on the HUVECs. Data represented the mean standard deviation (SD) from three independent experiments. *** p < 0.005compared with control.
HUVECs were seeded in 6-well plates precoated with 0.1% gelatin, and grown overnight to confluence. The monolayer cells were wounded by scratching with 10 μL pipet tips and washed twice with serum-free DMEM (Dulbecco’s modified eagle medium) to remove the nonadherent cells and then replaced by serum-free DMEM with the indicated concentrations of compounds for 24 h. Images were taken at 0 h and 24 h independently after incubation at 37 °C, 5% CO2 environment. The migrated HUVECs were manually counted. The values were observed from four randomly selected fields.

The test system of data set [4] is transgenic fli-1: enhanced GFP zebrafish embryos. Description: Zebrafish embryo assay: antiangiogenic effects. It counts as in vivo, zebrafish (Danio rerio). The conditions noted are these: zebrafish embryos.
In data set [5] the test system is zebrafish embryos. Description: Zebrafish toxicity: mortality rate. It is filed as in vivo, zebrafish (Danio rerio). As for the experimental part:
as §2, §3

A further data set has as its system HUVEC. Briefly: MTT assay, cell proliferation. It counts as cell-based, Human. The following applies: Homo sapiens, 24 h, read-out: IC50, inhibition of cell proliferation. A digest of the protocol:
(§4)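 Viability after a 24 h compound exposure (5 × 10^3 cells/well, 37 °C) was measured by MTT reduction over 3 h with a 570 nm read-out. IC50 values are concentrations that halve proliferation relative to untreated control.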

The next data set concerns K562. Description: MTT assay, cell proliferation. The conditions noted are these: Homo sapiens, 24 h, read-out: IC50, inhibition of cell proliferation. It counts as cell-based. A digest of the protocol:
as §1

The subject of the next data set is HepG2. Description: MTT assay, cell proliferation. The conditions noted are these: Homo sapiens, 24 h, read-out: IC50, inhibition of cell proliferation. It is filed as cell-based. A digest of the protocol: as §1
A further data set deals with HCT116. Briefly: MTT assay, cell proliferation. The following applies: Homo sapiens, HCT-116, 24 h, read-out: IC50, inhibition of cell proliferation. It counts as cell-based. A digest of the protocol:
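Treatment lasted 24 h at 5 × 10^3 cells per well. MTT incubation ran 3 h, formazan was dissolved in DMSO and A570 was recorded. Percent growth against untreated wells gave the IC50 (50% inhibition).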

In the next data set the test system is HeLa. Description: MTT assay, cell proliferation. It counts as cell-based. The conditions noted are these: Homo sapiens, 24 h, read-out: IC50, inhibition of cell proliferation. A digest of the protocol:
as §1

The test system of the next data set is A549. Briefly: MTT assay, cell proliferation. The following applies: Homo sapiens, 24 h, read-out: IC50, inhibition of cell proliferation. It counts as cell-based. A digest of the protocol:
as §4

The mark [6] stands for this setting: Danio rerio, read-out: antiangiogenic rates.
Setting [7] is: Danio rerio, vs vehicle (0.05% DMSO), read-out: Anti-angiogenic phenotype.

Where “and” joins values, the source holds several entries; their conditions need not be identical. Equal values may be shown once. Read-outs that look alike come from different tables or passages of the source.

Turning to `CC(=O)Nc1ccc(NC(=O)/C(C)=C\CC23OC(C)(C)C4CC(C=C5C(=O)c6c(O)c7c(c(CC=C(C)C)c6OC542)OC(C)(CCC=C(C)C)C=C7)C3=O)cc1` (stereo not shown) [Compound 35, N-(4-acetamidophenyl) gambogamide], the inhibition at 0.5 µM in the data set on HUVECs [1] turned out to be 37%. Also, the IC50 worked out at 1170 ± 410 nM in the data set on LO2; 200 ± 10 nM in the data set on HUVEC; 260 ± 10 nM in the data set with K562; 270 ± 50 nM in the data set with HepG2; 400 ± 20 nM in the data set with HCT116; 490 ± 20 nM in the data set with HeLa. The IC50 in the data set with A549 came to 500 ± 50 nM. Besides, the “heart rates relative to control group” value with zebrafish embryos [2] (2.5 µM and 10 µM, zebrafish) is on record as “about half of the control group”. The “Heart rates of zebrafish” value is 57 ± 2.61 beats/min in the data set on zebrafish embryos [2] (2.5 μM) and 45 ± 4.95 beats/min with zebrafish embryos [2] (10 μM). In the data set on HUVECs [3], the migratory rates is on record as 3.6%. In addition, the inhibition in vivo at 1 µM in data set [4] (setting [6]) and in [4] (setting [7]) was 25 to 50% in each case. In data set [4] (Danio rerio, 2.5 μM, vs vehicle (0.05% DMSO), read-out: Anti-angiogenic phenotype), the inhibition in vivo at 2.5 µM was 50 to 75%. For the same compound, the inhibition in vivo at 10 µM in data set [4] (Danio rerio, 10 μM, vs vehicle (0.05% DMSO), read-out: Anti-angiogenic phenotype) is > 75%. Besides, the Mortality rates in the data set with zebrafish embryos [5] (1 μM, zebrafish) was 3.3 ± 5.77 %; with zebrafish embryos [5] (2.5 µM and 10 µM, zebrafish embryos), “less than 20%”; with zebrafish embryos [5] (2.5 μM, zebrafish) it was 10 ± 0.00 %; in the data set with zebrafish embryos [5] (10 μM, zebrafish), 16.7 ± 5.77 %.

`CC(C)=CCC[C@]1(C)C=Cc2c(O)c3c(c(CC=C(C)C)c2O1)O[C@]12C(=C[C@@H]4C[C@H]1C(C)(C)O[C@@]2(C/C=C(/C)C(=O)O)C4=O)C3=O` [GA, Gambogic acid]: the inhibition at 0.5 µM with HUVECs [1] turned out to be 26.1%. Also, the IC50 in the data set on LO2 is 890 ± 80 nM; in the data set on HUVEC it was 270 ± 10 nM; with K562, 490 ± 30 nM; in the data set on HepG2, 840 ± 40 nM; with HCT116 it was 590 ± 30 nM; in the data set on HeLa it was 1140 ± 60 nM. Further, the IC50 in the data set on A549 turned out to be 940 ± 30 nM. The “Heart rates of zebrafish” value in the data set on zebrafish embryos [2] (1 μM) is 36 beats/min and 36 ± 3.32 beats/min; in the data set on zebrafish embryos [2] (2.5 μM), “Dead ^b”; with zebrafish embryos [2] (10 μM), “Dead”. Moreover, the migratory rates with HUVECs [3] is 2.2%. Also, the Anti-angiogenic phenotype entry is recorded as “Dead ^b” in [4] (2.5 μM, vs vehicle (0.05% DMSO)) and “Dead” in data set [4] (10 μM, vs vehicle (0.05% DMSO)). In addition, the inhibition in vivo at 1 µM in [4] (setting [6]) and in data set [4] (setting [7]) was 25 to 50% in each case. Also, the Mortality rates came to 20 ± 0.00% in the data set on zebrafish embryos [5] (1 μM, zebrafish); 73.3% in the data set on zebrafish embryos [5] (2.5 μM, zebrafish); 73.3 ± 5.77% in the data set with zebrafish embryos [5] (2.5 μM, zebrafish, listed as A); 100% in the data set on zebrafish embryos [5] (10 μM, zebrafish).
